Data published in ChEMBL document CHEMBL1201862, “PubChem BioAssay data set” (2004).
One block for each molecule: values may come before it. The source made the active and inactive calls.

Assays:
Galanin receptor type 3 = molecular target: T1, Galanin receptor type 3 (Homo sapiens, UniProt O60755); assay: Fluorescence-based cell-based primary high throughput dose response assay to identify antagonists of the Galanin Receptor 3 (GalR3).; assay type: functional
T1 sequence (O60755 whole entry): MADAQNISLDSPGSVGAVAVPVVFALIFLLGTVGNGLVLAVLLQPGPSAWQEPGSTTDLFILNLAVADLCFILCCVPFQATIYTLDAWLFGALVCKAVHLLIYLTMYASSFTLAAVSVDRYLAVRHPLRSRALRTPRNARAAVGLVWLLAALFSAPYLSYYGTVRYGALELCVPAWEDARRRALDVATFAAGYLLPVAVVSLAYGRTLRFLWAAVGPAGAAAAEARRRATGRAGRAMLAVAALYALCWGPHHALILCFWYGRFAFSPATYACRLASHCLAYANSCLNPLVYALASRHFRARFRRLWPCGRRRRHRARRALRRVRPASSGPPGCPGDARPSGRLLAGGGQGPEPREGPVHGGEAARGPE

cells = assay type: functional, cell-based; details: HEK-CNG
[1] = molecular target: T2, Corticotropin-releasing factor receptor 2/Corticotropin-releasing factor-binding protein (Homo sapiens, UniProt P24387+Q13324); assay: activators of CRF receptor 2 with binding protein – uHTS hits, confirmation (AID 602473); assay type: functional; details: read-out: EC50_Mean
T2 sequence (Q13324 whole entry): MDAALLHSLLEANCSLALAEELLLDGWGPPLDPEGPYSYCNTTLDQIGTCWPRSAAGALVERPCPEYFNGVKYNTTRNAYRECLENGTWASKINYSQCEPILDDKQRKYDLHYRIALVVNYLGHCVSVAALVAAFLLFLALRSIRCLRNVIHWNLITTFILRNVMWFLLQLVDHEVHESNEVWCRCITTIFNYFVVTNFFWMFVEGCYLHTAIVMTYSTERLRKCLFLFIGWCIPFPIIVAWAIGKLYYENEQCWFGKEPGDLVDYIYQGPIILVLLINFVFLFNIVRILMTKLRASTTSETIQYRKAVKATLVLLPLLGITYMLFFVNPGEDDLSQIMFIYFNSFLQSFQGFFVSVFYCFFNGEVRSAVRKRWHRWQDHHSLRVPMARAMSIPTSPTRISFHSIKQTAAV
T2 sequence (P24387 whole entry): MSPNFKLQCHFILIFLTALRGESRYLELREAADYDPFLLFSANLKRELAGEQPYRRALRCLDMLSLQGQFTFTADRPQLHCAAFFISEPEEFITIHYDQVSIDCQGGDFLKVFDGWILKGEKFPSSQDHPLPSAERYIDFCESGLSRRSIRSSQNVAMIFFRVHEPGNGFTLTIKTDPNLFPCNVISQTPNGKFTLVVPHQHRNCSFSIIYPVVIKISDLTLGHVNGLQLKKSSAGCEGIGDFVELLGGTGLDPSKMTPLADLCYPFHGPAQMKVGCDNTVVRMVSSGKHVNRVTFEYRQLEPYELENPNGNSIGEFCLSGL

[2] = molecular target: T2, Corticotropin-releasing factor receptor 2/Corticotropin-releasing factor-binding protein; assay: Dose Response confirmation of uHTS hits for small molecule antagonists of the CRF-binding protein and CRF-R2 receptor complex.; assay type: functional; details: read-out: IC50_Mean
[3] = blockers of CRF-binding protein–CRF-R2 complex – cell-based, uHTS hits, 384-well, dose response (AID 651639); assay type: functional, Homo sapiens; details: read-out: IC50_Mean
[4] = OVCAR8 cell viability loss – plate reader, dry powder samples, PAX8 project, dose response (AID 743197); assay type: functional, cell-based; details: OVCAR-8
Paired box protein Pax-8 = Paired box protein Pax-8 (Homo sapiens, UniProt Q06710); assay: PAX8 transcriptional activity inhibition in RMG-I – RMG-I cells, luciferase, cherry-pick, dose response (AID 687027); assay type: functional, cell-based;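 note: luciferase reporter driven by Pax8 target thyroperoxidase promoter measured by SteadyGlo luminescence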
[5] = OVCAR-3 cell viability loss – plate reader, dry powder samples, PAX8 inhibitor project, dose response (AID 743044); assay type: functional, cell-based
[6] = HIV-1 AD8 envelope cell-cell fusion blockers – cherry-pick, dose response (AID 652062); assay type: functional, cell-based;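 note: luciferase signal from cell-cell fusion driven by HIV-1 clade B AD8 Env; potency is for inhibitors of fusion seen as a drop in luminescence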
[7] = viability loss in CEM21 cells – cell-based, CellTiter-Glo luminescence, cherry-picked, cytotoxicity control for viral fusion inhibitor project, dose response (AID 652042); assay type: functional;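 note: potency for signal decrease meaning cytotoxicity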
[8] = blockers of HIV-1 envelope-mediated cell-cell fusion – cherry-pick, dose response (AID 652057); assay type: functional, cell-based
[9] = off-target signal loss in HeLa-CEM21 co-culture – HeLa F-luc CTL cells, cherry-picked, counter-screen for HIV-1 Env fusion inhibitor project, dose response (AID 652040); assay type: functional, cell-based;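 note: potency for signal decrease marking cytotoxic or nonspecific inhibition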
[10] = blockers of HIV-1 ZM109 envelope-driven cell-cell fusion – HeLa effector, CEM target cells, luciferase, cherry-pick, dose response (AID 652058); assay type: functional, cell-based;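 note: luciferase signal from HIV-1 Env mediated cell-cell fusion of effector and target cells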
[11] = viability loss in HeLa cells – cytotoxicity control for MgcRacGAP inhibitor project, dose response (AID 624300); assay type: functional
[12] = Fluorescence-based cell-based high throughput dose response assay for inhibitors of the interaction of nucleotide-binding oligomerization domain containing 2 (NOD2) and the receptor-interacting serine-threonine kinase 2 (RIPK2).; assay type: functional; details: Homo sapiens
Large T antigen = Large T antigen (Simian virus 40, UniProt P03070); assay type: functional, Betapolyomavirus macacae;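 note: Confirmatory-stage PubChem screen for compounds that inhibit SV40 T antigen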
[13] = molecular target: T3, Microphthalmia-associated transcription factor (Homo sapiens, UniProt O75030); assay: reducers of TRPM1 reporter luminescence, concentration series – cell-based, SK-MEL-5, cherry-picked, set 3, MITF inhibitor project, dose response (AID 493073); assay type: functional;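 note: SK-MEL-5 melanoma cells with luciferase driven by the MITF target TRPM1 promoter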
T3 sequence (O75030 whole entry): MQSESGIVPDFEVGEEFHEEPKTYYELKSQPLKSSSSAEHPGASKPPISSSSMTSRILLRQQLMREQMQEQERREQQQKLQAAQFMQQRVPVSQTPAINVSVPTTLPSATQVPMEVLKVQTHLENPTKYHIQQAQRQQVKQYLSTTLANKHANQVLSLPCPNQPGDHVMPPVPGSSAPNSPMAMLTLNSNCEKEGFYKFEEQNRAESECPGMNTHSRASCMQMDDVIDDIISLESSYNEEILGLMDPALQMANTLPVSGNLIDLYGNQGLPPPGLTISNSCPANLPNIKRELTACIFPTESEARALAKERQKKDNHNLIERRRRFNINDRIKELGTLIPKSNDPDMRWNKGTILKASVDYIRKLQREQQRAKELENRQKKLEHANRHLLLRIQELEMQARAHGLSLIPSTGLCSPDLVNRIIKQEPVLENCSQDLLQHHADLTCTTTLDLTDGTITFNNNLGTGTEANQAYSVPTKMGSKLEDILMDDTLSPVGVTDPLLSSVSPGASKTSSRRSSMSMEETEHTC

[14] = molecular target: FAD-linked sulfhydryl oxidase ALR (Homo sapiens, UniProt P55789); assay: ALR-catalysed DTT oxidation blockers – biochemical, H2O2 detection, luminescence, cherry-pick, dose response (AID 493248)
[15] = inhibition of ADAM10 peptide cleavage – biochemical, FRET peptide substrate, recombinant human ADAM10, selectivity assay for ADAM17 exosite inhibitor project, dose response (AID 743259);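 note: ADAM10 enzyme cleaving a FRET peptide substrate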
[16] = molecular target: Disintegrin and metalloproteinase domain-containing protein 17 (Homo sapiens, UniProt P78536); assay: exosite inhibitors of ADAM17, dose response, biochemical (AID 743260)
Steroidogenic factor 1 = Steroidogenic factor 1 (Homo sapiens, UniProt Q13285); assay: Counterscreen for inverse agonists of the liver receptor homolog-1 (LRH-1; NR5A2): Luminescence-based cell-based high throughput dose response assay to identify inverse agonists of the Steroidogenic Factor 1 Nuclear Receptor (SF1; NR5A1).; assay type: functional
[17] = nonselective StAR promoter luciferase inhibitors – cell-based, luminescence, luciferase reporter, counter-screen for LRH-1 inverse agonist project, dose response (AID 651969); assay type: functional
[18] = molecular target: Nuclear receptor subfamily 5 group A member 2 (Homo sapiens, UniProt O00482); assay type: functional, cell-based;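 note: HEK293T cells transfected with LRH-1 and a StAR promoter luciferase reporter; potency for inhibitors that lower LRH-1 driven reporter light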
Sequence of Nuclear receptor subfamily 5 group A member 2 (O00482 whole entry): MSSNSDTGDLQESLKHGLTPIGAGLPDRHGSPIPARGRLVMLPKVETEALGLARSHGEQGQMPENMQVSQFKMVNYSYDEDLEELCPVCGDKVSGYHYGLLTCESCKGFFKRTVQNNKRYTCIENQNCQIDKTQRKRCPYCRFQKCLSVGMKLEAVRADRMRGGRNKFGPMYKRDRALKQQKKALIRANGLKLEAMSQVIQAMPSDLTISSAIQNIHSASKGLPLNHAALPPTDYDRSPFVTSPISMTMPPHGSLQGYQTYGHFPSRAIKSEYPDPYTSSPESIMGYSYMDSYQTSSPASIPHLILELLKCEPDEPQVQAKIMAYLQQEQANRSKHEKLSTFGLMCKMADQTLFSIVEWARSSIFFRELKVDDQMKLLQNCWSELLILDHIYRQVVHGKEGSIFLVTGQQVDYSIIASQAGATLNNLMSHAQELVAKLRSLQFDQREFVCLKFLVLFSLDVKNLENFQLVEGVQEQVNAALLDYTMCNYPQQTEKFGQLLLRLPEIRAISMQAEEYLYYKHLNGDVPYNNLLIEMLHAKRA

Sequence of Paired box protein Pax-8 (Q06710 whole entry): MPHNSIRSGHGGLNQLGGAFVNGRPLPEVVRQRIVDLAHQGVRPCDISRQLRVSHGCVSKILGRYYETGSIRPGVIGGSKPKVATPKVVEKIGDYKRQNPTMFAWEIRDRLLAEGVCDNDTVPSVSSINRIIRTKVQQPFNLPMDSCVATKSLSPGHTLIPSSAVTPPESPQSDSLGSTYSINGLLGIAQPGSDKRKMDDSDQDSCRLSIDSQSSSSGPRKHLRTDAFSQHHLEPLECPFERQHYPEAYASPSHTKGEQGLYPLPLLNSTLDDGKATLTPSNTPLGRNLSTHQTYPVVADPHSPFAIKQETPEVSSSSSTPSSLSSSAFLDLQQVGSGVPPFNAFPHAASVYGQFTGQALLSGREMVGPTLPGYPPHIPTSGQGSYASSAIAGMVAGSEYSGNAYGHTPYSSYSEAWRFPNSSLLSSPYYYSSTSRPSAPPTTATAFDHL
Sequence of Steroidogenic factor 1 (Q13285 whole entry): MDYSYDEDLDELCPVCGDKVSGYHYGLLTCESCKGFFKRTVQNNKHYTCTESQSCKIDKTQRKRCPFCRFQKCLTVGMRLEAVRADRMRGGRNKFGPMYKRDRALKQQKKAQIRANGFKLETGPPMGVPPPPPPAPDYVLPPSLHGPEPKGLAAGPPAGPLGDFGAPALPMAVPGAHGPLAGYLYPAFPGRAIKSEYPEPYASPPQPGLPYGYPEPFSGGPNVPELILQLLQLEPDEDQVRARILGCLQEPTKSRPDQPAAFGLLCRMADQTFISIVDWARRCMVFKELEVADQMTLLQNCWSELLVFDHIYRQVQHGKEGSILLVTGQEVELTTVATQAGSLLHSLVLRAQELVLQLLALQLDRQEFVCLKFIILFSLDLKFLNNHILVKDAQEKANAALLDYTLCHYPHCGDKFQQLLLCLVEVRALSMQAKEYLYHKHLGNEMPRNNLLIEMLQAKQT
Sequence of Disintegrin and metalloproteinase domain-containing protein 17 (P78536 whole entry, the tested form may be a part): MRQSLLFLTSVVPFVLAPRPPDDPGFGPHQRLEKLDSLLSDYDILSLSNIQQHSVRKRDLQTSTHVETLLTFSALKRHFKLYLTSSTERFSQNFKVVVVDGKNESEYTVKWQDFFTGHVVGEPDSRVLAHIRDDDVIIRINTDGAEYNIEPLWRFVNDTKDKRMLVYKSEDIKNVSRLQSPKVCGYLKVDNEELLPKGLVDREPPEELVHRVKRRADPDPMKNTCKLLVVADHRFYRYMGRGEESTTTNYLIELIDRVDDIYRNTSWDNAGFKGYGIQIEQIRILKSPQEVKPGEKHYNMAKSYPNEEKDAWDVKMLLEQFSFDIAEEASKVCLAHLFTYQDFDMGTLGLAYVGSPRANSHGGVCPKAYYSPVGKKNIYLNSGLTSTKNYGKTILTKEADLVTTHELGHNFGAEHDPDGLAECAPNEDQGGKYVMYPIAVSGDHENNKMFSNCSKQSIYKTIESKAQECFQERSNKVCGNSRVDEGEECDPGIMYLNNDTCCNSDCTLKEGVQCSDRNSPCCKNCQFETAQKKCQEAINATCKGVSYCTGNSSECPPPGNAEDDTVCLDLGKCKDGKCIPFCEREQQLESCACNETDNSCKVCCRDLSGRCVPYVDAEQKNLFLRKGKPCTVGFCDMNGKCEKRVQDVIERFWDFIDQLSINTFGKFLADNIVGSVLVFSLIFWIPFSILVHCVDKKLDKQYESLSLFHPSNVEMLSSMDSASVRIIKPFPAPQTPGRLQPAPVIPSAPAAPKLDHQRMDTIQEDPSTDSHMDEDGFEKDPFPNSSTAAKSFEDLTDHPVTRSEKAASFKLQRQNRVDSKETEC
Sequence of FAD-linked sulfhydryl oxidase ALR (P55789 whole entry): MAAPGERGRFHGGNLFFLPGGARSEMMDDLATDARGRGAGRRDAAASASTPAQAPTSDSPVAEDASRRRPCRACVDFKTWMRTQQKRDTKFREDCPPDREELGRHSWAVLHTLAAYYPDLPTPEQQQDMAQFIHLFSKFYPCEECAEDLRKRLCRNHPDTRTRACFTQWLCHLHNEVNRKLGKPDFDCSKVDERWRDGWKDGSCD
Sequence of Large T antigen (P03070 whole entry): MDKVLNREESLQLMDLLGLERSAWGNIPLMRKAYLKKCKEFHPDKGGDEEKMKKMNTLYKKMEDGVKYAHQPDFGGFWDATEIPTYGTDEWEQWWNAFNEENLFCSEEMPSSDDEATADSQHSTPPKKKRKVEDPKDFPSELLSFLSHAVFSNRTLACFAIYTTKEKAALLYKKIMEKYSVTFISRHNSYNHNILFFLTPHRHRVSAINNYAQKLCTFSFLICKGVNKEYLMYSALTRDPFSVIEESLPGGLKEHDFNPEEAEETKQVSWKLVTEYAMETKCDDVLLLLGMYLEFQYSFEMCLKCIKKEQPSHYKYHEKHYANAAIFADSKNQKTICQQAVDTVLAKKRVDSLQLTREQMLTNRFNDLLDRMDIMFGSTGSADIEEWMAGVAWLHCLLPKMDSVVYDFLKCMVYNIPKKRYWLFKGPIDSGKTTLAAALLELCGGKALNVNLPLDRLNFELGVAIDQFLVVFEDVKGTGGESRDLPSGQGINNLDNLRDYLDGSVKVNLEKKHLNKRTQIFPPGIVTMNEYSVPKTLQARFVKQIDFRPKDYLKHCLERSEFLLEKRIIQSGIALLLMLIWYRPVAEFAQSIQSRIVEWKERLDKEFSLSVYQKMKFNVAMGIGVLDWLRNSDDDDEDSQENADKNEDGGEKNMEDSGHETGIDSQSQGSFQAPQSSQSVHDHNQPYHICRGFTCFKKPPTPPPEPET

Compound: Cn1c(C(=O)NN)cc2cc(Oc3ccccc3)ccc21
IC50 (Galanin receptor type 3): 8.17 µM (active)
EC50 (cells): > 29.9 µM (inactive)

EC50 [1]: > 53 µM (inactive)
IC50 [2]: < 0.368 µM (active)
IC50 [3]: > 20 µM (inactive)
Compound: COc1cccc(NC(=O)c2cc(S(=O)(=O)N3CCc4ccccc43)cn2C)c1

Compound: C[C@H]1CCCCO[C@H](CN(C)C(=O)C2CCCCC2)[C@@H](C)CN([C@@H](C)CO)C(=O)c2cc(NS(=O)(=O)c3ccc(Cl)cc3)ccc2O1
AC50 [4]: > 70 µM (inactive)
AC50 (Paired box protein Pax-8): 11.5 µM (active)
AC50 [5]: 33.9 µM (active)

Compound: Cc1ccccc1S(=O)(=O)N(C)C[C@@H]1OCc2ccccc2-c2c(n(C)c3ccccc23)C(=O)N([C@H](C)CO)C[C@@H]1C
AC50 [6]: 3.16 µM (active)
AC50 [7]: 31.6 µM (active)
AC50 [8]: 1.37 µM (active)
AC50 [9]: 1.66 µM (active)
AC50 [10]: 1.75 µM (active)

Compound: N=C(NOC(=O)N1c2ccccc2Sc2ccccc21)c1ccc(Br)cc1
CC50 [11]: 63.6 µM (active)

Compound: O=[N+]([O-])/C=C\c1ccc(N2CCOCC2)cc1
IC50 [12]: 4.32 µM (active)
IC50 (Large T antigen): > 100 µM (active)
AC50 [13]: 13.6 µM (active)

EC50 [1]: > 53 µM (inactive)
AC50 [14]: 0.025 µM (active)
IC50 [2]: 33.1 µM (active)
IC50 [3]: > 20 µM (inactive)
Compound: Cc1nc2c(C)cccc2cc1C(=O)N/N=C/c1ccc(O)cc1

IC50 [16]: > 69.5 µM (inactive)
Compound: CCOC(=O)C1=C(C(=O)OCC)C2N(Cc3ccc(C#N)cc3)c3ccccc3[C@@]23C[C@@H](C(=O)OC)N(S(=O)(=O)c2ccc(OC)cc2)C3=N1 (stereo partly drawn)
IC50 [15]: 15.4 µM (inactive)

Compound: Cc1ccc(-c2nn3c(C)nnc3s2)cc1NC(=O)c1ccco1
IC50 (Steroidogenic factor 1): 8.56 µM (active)
IC50 [17]: 35.9 µM (inactive)
IC50 [18]: 18.3 µM (inactive)

Compound: CCOC(=O)c1[nH]c2ccc(OC)cc2c1NS(=O)(=O)c1ccc(Cl)s1
IC50 (Galanin receptor type 3): 1.45 µM (active)
EC50 (cells): > 29.9 µM (inactive)
